Where a SMILES comes first, the peptide text is derived from it. The star is where a group is joined. Cbz = O=C(OCc1ccccc1)*

From patent US20090281040A1, “Methods For Treating Endoplasmic Reticulum (ER) Stress Disorders” (priority 2008, published 2009) come the findings set out here.

One test has as its system WFS1-ATF6 complex. Nature of the test: WFS1-ATF6 co-immunoprecipitation in INS-1 832/13 cells. The test is classed as cell-based, rat. Here is the method:
Both WFS1 and ATF6 are transmembrane proteins localized to the ER. The association of WFS1 with ATF6 in INS-1 832/13 cells was examined. An anti-WFS1 antibody was used to immunoprecipitate (IP) WFS1 from INS-1 832/13 cells untreated (UT) or treated with the ER stress inducer DTT (1 mM) for 0.5 hr, 1.5 hr, or 3 hr. Immunoprecipitates were then subject to immunoblot (IB) analysis using anti-ATF6, anti-WFS1, and anti-actin antibodies. […] To confirm that the interaction between WFS1 and ATF6 is recovered post-stress, an anti-WFS1 antibody was used to immunoprecipiate (IP) WFS1 from INS-1 832/13 cells untreated (UT) or treated with the ER stress inducer DTT (1 mM) for 2 hr. The cells were then chased in normal media for 0 hr and 3 hr. Immunoprecipitates were subject to immunoblot (IB) analysis using anti-ATF6, anti-WFS1, and anti-actin antibodies. The relative amount of ATF6 protein was quantified using ImageJ software.

Test [1] concerns AATF mRNA. Nature of the test: AATF mRNA expression by real-time PCR in cells treated with ER stress inducers. It counts as cell-based, rat; mouse. The following applies: for AATF mRNA expression: INS-1 832/13, neuro2A cells and mouse embryonic fibroblasts, 16 hr, TM 5 μg/ml, Tg 1 μM, MG132 2 μM, STR 0.05 and 0.01 μM. How it is done:
Cell culture and transfection of small interfering RNA. Rat insulinoma cells, INS-1 832/13, were a gift from Dr. Christopher Newgard (Duke University Medical Center). These cells were cultured in RPMI 1640 supplemented with 10% FBS. Mouse embryonic fibroblasts, COS7 cells, and Neuro2a cells were maintained in DMEM with 10% fetal bovine serum. Human neuroblastoma cells, SH-SY5Y cells, were cultured in DMEM/F12 with 10% fetal bovine serum.
(§1) Real-time polymerase chain reaction. Total RNA was isolated from cells using RNeasy Mini Kit (Qiagen) and reverse transcribed using 1 μg of total RNA from cells with Oligo-dT primer. For the thermal cycle reaction, the iQ5 system (BioRad, Hercules, Calif.) was used at 95° C. for 10 min, 40 cycles at 95° C. for 10 sec, and at 55° C. for 30 sec.
The relative amount for each transcript was calculated by a standard curve of cycle thresholds for serial dilutions of cDNA samples and normalized to the amount of actin. The polymerase chain reaction (PCR) was done in triplicate for each sample, after which all experiments were repeated twice. The following sets of primers and Power SYBR Green PCR Master Mix (Applied Biosystems, Foster City, Calif.) were used for real-time PCR: […]
A general note: In qPCR the cycle at which signal appears reflects the starting amount.

The next test concerns ATF6. The experiment in a line: ATF6 protein level immunoblot in COS7 cells expressing ATF6-HA and WFS1-FLAG. The test is classed as cell-based. The following applies: MG132 15 μM, 3 hr. How it is done: To investigate whether the decrease in ATF6 protein level is proteosome-dependent, COS7 cells expressing ATF6-HA or ATF6-HA and WFS1-FLAG were either untreated (UT) or treated with the proteosome inhibitor MG132 (15 μM) for 3 hr. Lysates were immunoblotted with anti-HA, anti-FLAG, and anti-actin antibodies.

Test [2] deals with AATF mRNA. The experiment in a line: AATF mRNA by real-time PCR in wild-type, Ire1α−/− and Perk−/− mouse embryonic fibroblasts. The test is classed as cell-based. The note with it: for attenuation of the induction of AATF: Ire1α−/− cells versus wild-type; for induction of AATF: Perk−/− mouse embryonic fibroblasts versus wild-type. How it is done:
as §1
(§2) The relative amount for each transcript was calculated by a standard curve of cycle thresholds for serial dilutions of cDNA samples and normalized to the amount of actin. The polymerase chain reaction (PCR) was done in triplicate for each sample, after which all experiments were repeated twice. The following sets of primers and Power SYBR Green PCR Master Mix (Applied Biosystems, Foster City, Calif.) were used for real-time PCR:
The pathway by which AATF expression is regulated was investigated. IRE 1 and PERK are ER-resident protein kinases and regulators of the UPR. The expression levels of AATF were measured by real-time PCR in Ire1α^−/− and Perk^−/− mouse embryonic fibroblasts under ER stress conditions. […] To confirm this, Perk^−/− mouse embryonic fibroblasts were transfected with PERK expression plasmid, then AATF gene expression was measured. Chop expression was also measured as a control. PERK expression could restore both AATF and Chop expression (FIG. 2D).

In the next test the test system is Chop mRNA. The experiment in a line: Chop mRNA by real-time PCR in wild-type and Perk−/− mouse embryonic fibroblasts. The test is classed as cell-based. Set-up: dose or concentration left out as unconfirmed. The note with it: Salubrinal, 16 hr. Here is the method:
as §1, §2
It is established that PERK-mediated eIF2α phosphorylation has role in the up-regulation of its target genes (see, e.g., Harding, H. P., et al., Mol Cell 6, 1099-1108 (2000); Harding et al., Nature 397, 271-274 (1999)). Whether eIF2α phosphorylation could increase AATF expression was determined. […]

A further test concerns eIF2α phosphorylation. Nature of the test: eIF2α phosphorylation immunoblot in mouse embryonic fibroblasts. The test is classed as cell-based. Set-up: dose or concentration left out as unconfirmed. The following applies: 16 hr. How it is done: (§3) Immunoblotting. Cells were lysed for 15 min on ice at 4° C. in ice-cold M-PER buffer (PIERCE, Rockford, Ill.) containing protease inhibitors. The lysates were then cleared by centrifuging the cells at 13,000 g. Lysates were normalized for total protein, separated by SDS-PAGE (15% gel or 5%-20% gradient gel), and transferred onto a polyvinylidene difluoride membrane. To detect human AATF protein, anti-AATF antibody from Bethyl (Montgomery, Tex.) was used. To detect rat AATF protein, a rabbit anti-AATF antibody generated using a peptide, RPREADPEADPEEATR, was used. […]
It is established that PERK-mediated eIF2α phosphorylation has role in the up-regulation of its target genes (see, e.g., Harding, H. P., et al., Mol Cell 6, 1099-1108 (2000); Harding et al., Nature 397, 271-274 (1999)). Whether eIF2α phosphorylation could increase AATF expression was determined. Wild-type and Perk^−/− mouse fibroblasts were treated with salubrinal, a compound that increases eIF2α phosphorylation (see Boyce, M., et al., Science (New York, N.Y. 307, 935-939 (2005)), then AATF expression was measured, with Chop expression as a control. AATF expression, as well as Chop expression, was increased by salubrinal treatment in both wild-type and Perk^−/− mouse embryonic fibroblasts (FIG. 2C, upper panel). Immunoblot confirmed that eIF2α phosphorylation levels were increased by salubrinal (FIG. 2C, lower panel).

The next test relates to Akt1 mRNA. Nature of the test: Akt1 mRNA expression by real-time PCR. It counts as cell-based, rat; mouse. The following applies: Tg 1 μM. How it is done: as §1, §2
Whether Akt1 expression is increased by ER stress was examined. The expression levels of Akt1 mRNA were measured in the presence of ER stress in INS-1 832/13, neuro2A, and mouse embryonic fibroblasts.

In a further test the test system is AATF. The experiment in a line: AATF immunoblot of cytoplasmic and nuclear extracts from INS-1 832/13 cells. The test is classed as cell-based, rat. The note with it: Tg 1 μM. Here is the method: Immunoblotting. Cells were lysed for 15 min on ice at 4° C. in ice-cold M-PER buffer (PIERCE, Rockford, Ill.) containing protease inhibitors. The lysates were then cleared by centrifuging the cells at 13,000 g. Lysates were normalized for total protein, separated by SDS-PAGE (15% gel or 5%-20% gradient gel), and transferred onto a polyvinylidene difluoride membrane. To detect human AATF protein, anti-AATF antibody from Bethyl (Montgomery, Tex.) was used. To detect rat AATF protein, a rabbit anti-AATF antibody generated using a peptide, RPREADPEADPEEATR, was used. Anti-actin and anti-myc (9E10) antibodies were purchased from Sigma (St. Louis, Mo.); anti-eIF2α was purchased from Santa Cruz Biotechnology (Santa Cruz, Calif.); anti-phospho-eIF2α, anti-Akt, anti-Akt1, anti-phospho-Akt, anti-Creb, anti-tubulin, and anti-caspase-3 antibodies were purchased from Cell Signaling (Danvers, Mass.).
Background: A western blot detects proteins with antibodies after separation by electrophoresis.

The test system of another test is Akt. The experiment in a line: Akt, Akt1 and phosphorylated Akt immunoblot in INS-1 832/13 cells. It counts as cell-based, rat. The following applies: INS1 832/13 cells, Tg 1 μM. Here is the method: as §3
It has been proposed that phosphorylation of Akt is important in protecting cells from apoptosis (Srinivasan, S., et al., Diabetes 54, 968-975 (2005). As shown in FIG. 4C (right panel), phosphorylation level of Akt was increased up to 8 hr after treatment, but decreased at 24 hr. To study the relationship between AATF suppression and Akt phosphorylation, AATF expression was suppressed using siRNA directed against AATF in INS-1 832/13 cells and the cells were treated with thapsigargin for 0, 3, and 8 hr, then Akt expression and Akt phosphorylation levels were measured by immunoblot. Both Akt expression and Akt phosphorylation levels were decreased by AATF siRNA (FIG. 4D). […] INS-1 832/13 cells were infected with the virus and Akt1 expression levels were measured.

On to `O[C@@H](CS)[C@@H](O)CS` [DTT], for which the “interaction of ATF6 and WFS1 post-stress” value with WFS1-ATF6 complex (DTT 1 mM 2 hr, then 3 hour chase in normal media) is listed as “began to recover”. Also, the “dissociation of ATF6 from WFS1” value in the test on WFS1-ATF6 complex (DTT 1 mM, 3 hours post-treatment, time-dependent) is reported as “almost complete dissociation”.

As for `CC(C)C[C@@H](C=O)NC(=O)[C@H](CC(C)C)NC(=O)[C@H](CC(C)C)NC(=O)OCc1ccccc1` [MG132] (Cbz-Leu-Leu-Leu-aldehyde), the “AATF mRNA expression” value with AATF mRNA [1] was “up-regulated”. Besides, in the test with ATF6, the ATF6 protein levels result was “almost full recovery”.

For the compound `O=C(/C=C/c1ccccc1)NC(NC(=S)Nc1cccc2cccnc12)C(Cl)(Cl)Cl` (centres unmarked) [salubrinal], in the test with AATF mRNA [2] (wild-type and Perk−/− mouse embryonic fibroblasts, Salubrinal 75 nM, 16 hr), the AATF expression entry is recorded as “increased”. In the test with Chop mRNA, the Chop expression entry is “increased”. The eIF2α phosphorylation levels entry in the test with eIF2α phosphorylation is recorded as “increased”.

Consider `CN[C@@H]1C[C@H]2O[C@@](C)([C@@H]1OC)n1c3ccccc3c3c4c(c5c6ccccc6n2c5c31)C(=O)NC4` [staurosporin], for which the “AATF mRNA expression” value in the test on AATF mRNA [1] is on record as “not”. In the test on Akt1 mRNA (INS-1 832/13, neuro2A and mouse embryonic fibroblasts, 16 hr, TM 5 μg/ml, MG132 2 μM, STR 0.05 and 0.01 μM), the “increase of Akt1 mRNA expression” value is listed as “not”.

Consider `C/C=C(/C)C(=O)O[C@H]1C(C)=C2[C@H]([C@@H]1OC(=O)CCCCCCC)[C@@](C)(OC(C)=O)C[C@H](OC(=O)CCC)[C@@]1(O)[C@H]2OC(=O)[C@@]1(C)O` [thapsigargin], for which the “AATF mRNA expression” value in the test on AATF mRNA [1] is given as “up-regulated”. Further, the “AATF mRNA expression, time course” value with AATF mRNA [1] (INS-1 832/13 cells, Tg 0.5 μM, indicated times) is recorded as “continued to increase up to 24 hr”. The “AATF protein expression in cytoplasmic and nuclear extracts” value in the test on AATF is reported as “up-regulated”. Besides, in the test with AATF mRNA [2], the “attenuation of the induction of AATF” value was “not” and the “induction of AATF” value is “attenuated”. Further, the “time of peak Akt1 mRNA expression during ER stress” value in the test with Akt1 mRNA (INS1 832/13 cells) worked out at 24 h. The “phosphorylation level of Akt” value with Akt (at 24 hr) is given as “decreased”. Further, the “phosphorylation level of Akt” value in the test on Akt (up to 8 hr after treatment) is on record as “increased”.

Take tunicamycin: the “AATF mRNA expression” value in the test on AATF mRNA [1] is “up-regulated”. Also, in the test on AATF mRNA [2], the “attenuation of the induction of AATF” value is on record as “not” and the “induction of AATF” value was “attenuated”.
